# Patent EP0408668B1 (MASSACHUSETTS INSTITUTE OF TECHNOLOGY, priority 1988, dated 1990)
# How the values were obtained:
# [1] = test system: neuroblastoma/glioma cells (NG 108-15); test: Formation of tritiated CDP-choline from tritiated choline in neuroblastoma/glioma cells; type: cell-based; details: NG 108-15 cells, cytidine 25 µM, 90 minutes
# Description: CDP-choline is the immediate precursor for the phosphatidylcholine in membranes of neurons and other cells and its formation controls the production of phosphatidylcholine.
# [2] = test system: brain levels of cytidine and cytidine-(5')-diphosphate-choline (CDP-choline); details: rats, cytidine 1 g/kg ip, sacrificed after 1 hour, vs placebo
structure (smiles),measurement,setting,value
Nc1ccn([C@@H]2O[C@H](CO)[C@@H](O)[C@H]2O)c(=O)n1 [cytidine],newly-formed CDP-choline in cells incubated with supplemental cytidine vs without cytidine,[1],almost twice as much
same,brain CDP-choline levels rose by,[2],about 50%
